The structures appear in SMILES notation. Active and inactive are the calls of the source. No cut-off for these calls is given here.

Drawing on ChEMBL document CHEMBL3596183, “Cytoprotective effects of hydrogen sulfide-releasing N-methyl-D-aspartate receptor antagonists are mediated by intracellular sulfane sulfur” (Medchemcomm, 2014), this text covers Activity and EC50 for four molecules.

One assay deals with SH-SY5Y. Nature of the assay: Increase in H2S level in human SH-SY5Y cells at 20 uM after 3 hrs by HSip-1 probe-based fluorescence assay. The assay is classed as functional, cell-based.
The target of assay [1] is Transient receptor potential cation channel subfamily A member 1 (Rattus norvegicus, UniProt Q6RI86). Nature of the assay: Activation of TRPA1 in rat astrocytes assessed as induction of Ca2+ influx by calcium green-1/acetoxymethyl ester-based fluorescence assay. It is filed as cell-based.
Chain of Transient receptor potential cation channel subfamily A member 1 (Q6RI86 whole entry): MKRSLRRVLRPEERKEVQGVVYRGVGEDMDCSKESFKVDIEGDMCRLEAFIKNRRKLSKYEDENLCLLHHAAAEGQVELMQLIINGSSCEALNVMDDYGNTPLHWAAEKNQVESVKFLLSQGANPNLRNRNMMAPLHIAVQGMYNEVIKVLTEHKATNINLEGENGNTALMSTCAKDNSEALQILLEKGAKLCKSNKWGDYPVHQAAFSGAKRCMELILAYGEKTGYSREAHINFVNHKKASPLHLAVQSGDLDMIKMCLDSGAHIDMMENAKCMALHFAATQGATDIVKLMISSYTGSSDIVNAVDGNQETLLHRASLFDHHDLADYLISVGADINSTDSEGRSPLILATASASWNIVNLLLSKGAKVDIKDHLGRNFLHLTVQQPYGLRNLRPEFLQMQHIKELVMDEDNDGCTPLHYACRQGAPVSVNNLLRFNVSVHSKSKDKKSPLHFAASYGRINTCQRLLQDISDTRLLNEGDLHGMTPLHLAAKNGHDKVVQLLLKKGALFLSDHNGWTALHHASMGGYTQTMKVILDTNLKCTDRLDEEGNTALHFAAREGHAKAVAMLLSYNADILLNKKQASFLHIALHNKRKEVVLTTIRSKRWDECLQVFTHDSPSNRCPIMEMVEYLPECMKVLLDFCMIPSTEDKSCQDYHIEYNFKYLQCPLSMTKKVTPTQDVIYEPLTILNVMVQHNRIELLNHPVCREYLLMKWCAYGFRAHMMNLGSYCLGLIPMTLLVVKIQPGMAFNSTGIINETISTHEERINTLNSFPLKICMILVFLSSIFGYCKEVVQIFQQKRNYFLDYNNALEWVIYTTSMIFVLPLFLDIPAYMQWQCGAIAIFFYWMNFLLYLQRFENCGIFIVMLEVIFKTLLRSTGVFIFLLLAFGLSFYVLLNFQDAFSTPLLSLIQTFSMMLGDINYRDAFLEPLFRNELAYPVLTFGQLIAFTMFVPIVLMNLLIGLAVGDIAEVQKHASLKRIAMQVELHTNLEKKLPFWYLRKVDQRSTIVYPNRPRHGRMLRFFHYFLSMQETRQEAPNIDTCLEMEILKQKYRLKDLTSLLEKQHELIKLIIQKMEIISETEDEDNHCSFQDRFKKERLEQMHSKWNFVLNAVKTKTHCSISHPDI

`CC12CC3CC(C)(C1)CC(NC(=O)c1ccc(-c4cssc4=S)cc1)(C3)C2`: the outcome in the assay on SH-SY5Y was Active.
For the molecule `SSS`, the EC50 in assay [1] was found to be 0.091 µM.
Regarding `O=C(NC12CC3CC(CC(C3)C1)C2)c1ccc(-c2cssc2=S)cc1`, the outcome with SH-SY5Y was Active.
For the molecule `S1SSSSSSS1` [SULFUR], the EC50 in assay [1] was 116 µM.
